“Also recorded” adds a separate entry of the source.
Experiments:
[1] = tested on: bovine aortic endothelial cells; test: Effect of peptides on adherent bovine aortic endothelial cells on fibronectin or collagen; format: cell-based; details: 0.1M biotinylated peptide, 1 hour; cells adhered four hours on fibronectin or collagen
Method: Peptides from the phage display project were added to bovine aortic endothelial cells in culture. The endothelial cells had adhered to a surface coated with collagen or with fibronectin.
Experiment 1: Bovine aortic endothelial cells were plated on glass slides that were coated either fibronectin or collagen. The cell density was 5,000 cells/well. After the cells adhered for four hours, 0.1M of biotinylated peptide was added to each well. The following peptides were used: L1, L2, L5, L6, L7, L12, L13, L14, L19, R1, R3, and R8.
To perform this experiment, the media was removed and the cells were rinsed with 1×PBS plus 1% BSA three times. Peptides were diluted in 1×PBS plus 1% BSA, added to cells and incubated for 1 hour. The cells were rinsed three times with 1% BSA in PBS, and fixed with 2% parafomaldehyde. Aldehyde groups were blocked with 0.2 M HCl-glycine in PBS, the cells were rinsed three times with 1% BSA in PBS and ExtrAvidin-FITC (1:200 dilution) was added and incubated overnight at 4° C. The cells were rinsed three times with 1% BSA in PBS. The chambers and the gasket were removed from each slide, Vectashield was added, covered and viewed on a Nikon microscope. Images were acquired using a Coolsnap digital camera and Metavue software. […]
Experiment 3: The cells were adherent for about 6 hours and peptides at various concentrations were added to the cells. The concentrations of each of the peptides used in this experiment were: 0.1M, 0.01M, 0.001M and 0.0001M biotinylated peptide. The following peptides were tested: L1, L5, L6, L7, L13, L14, R1, R3, R8, DIP1 and PBS control (SEQ ID NOs:1, 3, 4, 5, 8, 9, 11, 13, 14, and 29).

[2] = tested on: bovine aortic endothelial cells (BAEC); test: Peptide binding to BAEC in culture (Avidin-FITC); design: key: ✓: Check marks indicate positive binding observed with FITC; −: a dash indicates a negative result
Method: For localization of peptide binding to cells and tissue sections, biotinylated peptides were synthesized. Fluorescein-isothiocyanate (FITC) labeled Avidin was used to localize the peptides on cells in culture and in tissue sections in vitro by epiluminescence microscopy. In addition, the biotinylated peptides were detected at concentrations as low as 1 μM in slot blots.
Bone marrow cells isolated from mouse femur were lifted with ethylenediaminetetraacetic acid (EDTA) and trypsin, resuspended, and allowed to attach on fibronectin-coated chamber slides for Avidin-FITC staining. […] The D1 cell is a multipotential mesenchymal stem-like line that was isolated from bone marrow and shown to have the characteristics of osteoprogenitor cells. This cell line has been well established and used successfully in several in vitro and in vivo studies in our laboratory. Peptide binding to human bone marrow endothelial cells (HBME) and bovine aortic endothelial cells (BAEC) in culture was also tested using the same procedure.

[3] = tested on: Unicortical femoral defects; test: Peptide-mediated osteogenesis in cortical bone defects (Example 8); format: in vivo, Fisher 344 rats; details: for Histological appearance of repair tissue in the defect / Effectiveness at stimulating osteogenesis and cortical bone repair: 100 mM peptide in gelfoam, two weeks postoperatively; for Effectiveness at stimulating osteogenesis and cortical bone repair: versus gelfoam+PBS
How it was run: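 Peptides (100 mM in a 1.5 × 2 mm gelfoam carrier) were placed in 1.5 mm unicortical femoral defects in Fisher 344 rats, with the contralateral defect given gelfoam+PBS as control, and harvested at two weeks. L7 was also dosed at 1, 5 and 20 mM, and 20 mM L7 was followed over 5, 10, 15 and 20 days.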

[4] = tested on: bone and bone marrow; test: In vivo biopanning with 12-mer peptide phage display library; design: species or system BALB/c mice; details: for PERCENT FREQUENCY: phage eluted from bone and bone marrow; for PHAGE SEQUENCE FREQUENCY (number of times the sequence was found in a group of plaques): phage eluted from bone and bone marrow after repeated rounds
How it was run: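 BALB/c mice (8 weeks) received 3.4×10^10 pfu of a 12-mer peptide phage library (pIII fusion, GGGS spacer) by intracardiac injection and were euthanized after 5 min. Bound phage eluted from bone and bone marrow was titered, amplified and re-injected at the same dose. Peptide frequency was compared with liver, kidney, lung, spleen and brain; sequences identified by phage DNA sequencing.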

[5] = tested on: bone and marrow tissue sections (mouse femur, rib); test: Biotinylated peptide binding to bone/marrow tissue sections, Avidin-FITC fluorescence; design: key to Localization of peptide binding: Bone/Marrow (tissue sections): ✓: Check marks indicate positive binding observed with FITC; −: a dash indicates a negative result; details: for Localization of peptide binding: Bone/Marrow (tissue sections): FITC; for Binding to rib and long bone growth plate sections: biotinylated peptides, 1/50,000 dilution of Avidin-FITC
How it was run: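 Cryosections (10 μm) of EDTA-decalcified femurs from 4-week-old mice were avidin/biotin-blocked, incubated 1 h at room temperature with 10 mM biotinylated peptide (PBS as negative control), then overnight at 4 °C with Avidin-FITC (1:50,000). Binding was visualized by fluorescence microscopy with a 535 nm fluorescein filter.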

[6] = BALB/c mouse decalcified femur cryosections, biotinylated peptide and Avidin-FITC
[7] = BALB/c mouse femur cryosections, biotinylated peptide
[8] = Swiss Webster mouse decalcified femur cryosections, 10 mM biotinylated peptide, 1 hour, Avidin-FITC
[9] = Swiss Webster mouse femur cryosections, 10 mM biotinylated peptide
[10] = biotinylated peptide, Avidin-FITC

Row | Fluorescence detected in femur sections incubated with peptide [5, 6] | Localization of peptide binding: Bone/Marrow (tissue sections) [5] | Fluorescence detected in femur sections incubated with peptide [5, 8] | Substance | Effect on adherent BAEC (Experiment 1) [1] | Localization of peptide binding: BAEC [2] | New bone formation versus corresponding controls at every time point ([3]; 20 mM, 5, 10, 15, and 20 days) | Time course of cortical bone repair ([3]; 20 mM, 5, 10, 15, and 20 days) | Histological appearance of repair tissue in the defect [3] | Effectiveness at stimulating osteogenesis and cortical bone repair [3] | Amount of bone that regenerated versus controls without peptide ([3]; 1, 5, and 20 mM) | Effect of peptide concentration on cortical bone regeneration ([3]; 1, 5, and 20 mM) | PERCENT FREQUENCY [4] | PHAGE SEQUENCE FREQUENCY (number of times the sequence was found in a group of plaques) [4] | Cell shape preferentially recognized by peptide [5, 7] | Extent of marrow cells detected by fluorescence [5, 7] | Cell shape preferentially recognized by peptide [5, 9] | Extent of marrow cells detected by fluorescence [5, 9] | Binding to bone and marrow in cryosections of mouse femur [5, 10] | Binding to fresh frozen sections of mouse rib [5, 10] | Binding to rib and long bone growth plate sections [5]
1 | Fluorescence was detected | ✓ | Fluorescence was detected | ASN-SER-MET-ILE-ALA-HIS-ASN-LYS-THR-ARG-MET-HIS-GLY-GLY-GLY-SER (NSMIAHNKTRMHGGGS; listed as Homo sapiens) [Peptide L7] | the cells lifted and formed clusters that stained intensely | ✓ | new bone formation was greater in the defects treated with peptide compared with the corresponding controls | Cortical bone regeneration increased with time | considerable amounts of cortical bone in the defects | potentiate bone regeneration in vivo; also recorded: most effective at stimulating osteogenesis and cortical bone repair; also recorded: most effective peptides for osteogenesis and repair of cortical defects | increased with all the concentrations of peptide, even at 1 mM and 5 mM compared with the controls without peptide | Osteogenesis was most pronounced with the highest concentration of peptide | 3.6% | 1/28 | Cells that appeared morphologically elongated showed the highest fluorescence intensity | most of the cells were detectable but fluorescence intensity was variable | Cells that appeared morphologically elongated showed the highest fluorescence intensity | most of the cells were detectable but fluorescence intensity was variable |  |  | 
2 |  | ✓ |  | SER-GLY-HIS-GLN-LEU-LEU-LEU-ASN-LYS-MET-PRO-ASN-GLY-GLY-GLY-SER (SGHQLLLNKMPNGGGS; listed as Homo sapiens) [Peptide L13] | no effect, with results similar to PBS | − |  |  | a considerable amount of gelfoam remaining in the defects, with thinner and more loosely organized cortical bone | least effective for cortical bone repair |  |  | 23.3% | 7/30 |  |  |  |  | binds to areas of bone and marrow in cryosections of mouse femur | binds to fresh frozen sections of mouse rib containing bone and marrow cells | significant binding to rib and long bone growth plate
3 | Fluorescence was detected | ✓ | Fluorescence was detected | ASN-TYR-SER-HIS-LEU-ARG-VAL-LYS-LEU-PRO-THR-PRO-GLY-GLY-GLY-SER (NYSHLRVKLPTPGGGS; listed as Homo sapiens) [Peptide R1] | the cells had lifted completely and most of the cells disappeared from the surface of the slides, leaving a lot of cell debris | ✓ |  |  | considerable amounts of cortical bone in the defects | potentiate bone regeneration in vivo; also recorded: most effective at stimulating osteogenesis and cortical bone repair; also recorded: most effective peptides for osteogenesis and repair of cortical defects |  |  | 24.1% | 7/29 | recognized the round cells preferentially | did not detect as many cells | recognized the round cells preferentially | did not detect as many cells |  |  | significant binding to rib and long bone growth plate

From patent US7871978B2, “Bone tropic peptides” (University of Virginia Patent Foundation, priority 2004, dated 2011)
